US9149038B2, “4-amino-6-(heterocyclic)picolinates and 6-amino-2-(heterocyclic)pyrimidine-4-carboxylates and their use as herbicides” (Dow AgroSciences LLC, priority 2013, dated 2015)
Read-outs that look alike come from different tables or passages of the source.

System: Wheat and Barley and weed species
Test: Post-Emergent Test III: postemergent herbicidal activity in wheat and barley, visual rating after 21 d and probit GR20/GR50/GR80/GR90 (Tables 9-13)
Type: in vivo
Conditions: for GR20 HORVS / GR20 TRZAS: growth reduction of 20%; for pest or weed control at 17.5 g/ha / pest or weed control at 35 g/ha / pest or weed control at 70 g/ha / pest or weed control at 140 g/ha: post-emergence, 504 h
Summary of the method: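 Greenhouse plants (~18/17 °C, 14 h photoperiod) at second–third true leaf stage sprayed at 187 L/ha with a high rate and ½× to 1/16× serial dilutions. Visual injury 0–100% versus solvent-blank controls scored at 21 d; GR20, GR50, GR80 and GR90 derived by probit analysis across rates.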

[1] = ALOMY black-grass (Alopecurus myosuroides), growth reduction of 50%, probit analysis
[2] = ALOMY black-grass (Alopecurus myosuroides), growth reduction of 80%, probit analysis
[3] = ALOMY black-grass (Alopecurus myosuroides), growth reduction of 90%, probit analysis
[4] = APESV bentgrass (Apera spica-venti), growth reduction of 50%, probit analysis
[5] = APESV bentgrass (Apera spica-venti), growth reduction of 80%, probit analysis
[6] = APESV bentgrass (Apera spica-venti), growth reduction of 90%, probit analysis
[7] = HORVS barley, spring (crop), probit analysis
[8] = Hordeum vulgare, HORVS barley, spring (crop), 35 g ai/ha, read-out: Visual Growth Reduction (%) 21 Days After Application HORVS
[9] = Hordeum vulgare, HORVS barley, spring (crop), 70 g ai/ha, read-out: Visual Growth Reduction (%) 21 Days After Application HORVS
[10] = LOLSS ryegrass, growth reduction of 50%, probit analysis
[11] = LOLSS ryegrass, growth reduction of 80%, probit analysis
[12] = LOLSS ryegrass, growth reduction of 90%, probit analysis
[13] = SETVI green foxtail (Setaria viridis), growth reduction of 50%, probit analysis
[14] = SETVI green foxtail (Setaria viridis), growth reduction of 80%, probit analysis
[15] = SETVI green foxtail (Setaria viridis), growth reduction of 90%, probit analysis
[16] = TRZAS wheat, spring (crop), probit analysis
[17] = Triticum aestivum, TRZAS wheat, spring (crop), 35 g ai/ha, read-out: Visual Growth Reduction (%) 21 Days After Application TRZAS
[18] = Triticum aestivum, TRZAS wheat, spring (crop), 70 g ai/ha, read-out: Visual Growth Reduction (%) 21 Days After Application TRZAS
[19] = ALOMY black-grass (Alopecurus myosuroides), 35 g ai/ha, read-out: Visual Growth Reduction (%) 21 Days After Application ALOMY
[20] = ALOMY black-grass (Alopecurus myosuroides), 70 g ai/ha, read-out: Visual Growth Reduction (%) 21 Days After Application ALOMY
[21] = APESV bentgrass (Apera spica-venti), 35 g ai/ha, read-out: Visual Growth Reduction (%) 21 Days After Application APESV
[22] = APESV bentgrass (Apera spica-venti), 70 g ai/ha, read-out: Visual Growth Reduction (%) 21 Days After Application APESV
[23] = LOLSS ryegrass, 35 g ai/ha, read-out: Visual Growth Reduction (%) 21 Days After Application LOLSS
[24] = LOLSS ryegrass, 70 g ai/ha, read-out: Visual Growth Reduction (%) 21 Days After Application LOLSS
[25] = SETVI green foxtail (Setaria viridis), 35 g ai/ha, read-out: Visual Growth Reduction (%) 21 Days After Application SETVI
[26] = SETVI green foxtail (Setaria viridis), 70 g ai/ha, read-out: Visual Growth Reduction (%) 21 Days After Application SETVI

Nc1c(F)c(-c2cc3c(cc2F)OC(F)(F)O3)nc(C(=O)O)c1Cl [Compound 13]
GR50 ALOMY [1]: 20 g ai/ha | GR80 ALOMY [2]: 40 g ai/ha | GR90 ALOMY [3]: 57 g ai/ha | GR50 APESV [4]: >70 g ai/ha | GR80 APESV [5]: >70 g ai/ha | GR90 APESV [6]: >70 g ai/ha | GR20 HORVS [7]: 2 g ai/ha | pest or weed control at 17.5 g/ha (Hordeum vulgare, HORVS barley, spring (crop), 17.5 g ai/ha, read-out: Visual Growth Reduction (%) 21 Days After Application HORVS): 60 to 74% | pest or weed control at 35 g/ha [8]: 75 to 84% | pest or weed control at 70 g/ha [9]: 85 to 94% | GR50 LOLSS [10]: >70 g ai/ha | GR80 LOLSS [11]: >70 g ai/ha | GR90 LOLSS [12]: >70 g ai/ha | Visual Growth Reduction (%) 21 Days After Application MATCH (MATCH wild chamomile (Matricaria recutita L.), 17.5 g ai/ha): G (0-29) | Visual Growth Reduction (%) 21 Days After Application MATCH (MATCH wild chamomile (Matricaria recutita L.), 35 g ai/ha): F (30-44) | Visual Growth Reduction (%) 21 Days After Application MATCH (MATCH wild chamomile (Matricaria recutita L.), 70 g ai/ha): D (60-74) | GR50 MATCH (MATCH wild chamomile (Matricaria recutita L.), growth reduction of 50%, probit analysis): 58 g ai/ha | GR80 MATCH (MATCH wild chamomile (Matricaria recutita L.), growth reduction of 80%, probit analysis): >70 g ai/ha | GR90 MATCH (MATCH wild chamomile (Matricaria recutita L.), growth reduction of 90%, probit analysis): >70 g ai/ha | GR50 SETVI [13]: 4 g ai/ha | GR80 SETVI [14]: 20 g ai/ha | GR90 SETVI [15]: 45 g ai/ha | GR20 TRZAS [16]: 2 g ai/ha | pest or weed control at 17.5 g/ha (Triticum aestivum, TRZAS wheat, spring (crop), 17.5 g ai/ha, read-out: Visual Growth Reduction (%) 21 Days After Application TRZAS): 60 to 74% | pest or weed control at 35 g/ha [17]: 75 to 84% | pest or weed control at 70 g/ha [18]: 75 to 84% | Visual Growth Reduction (%) 21 Days After Application VERPE (VERPE bird's-eye speedwell (veronica persica), 17.5 g ai/ha): C (75-84) | Visual Growth Reduction (%) 21 Days After Application VERPE (VERPE bird's-eye speedwell (veronica persica), 35 g ai/ha): B (85-94) | Visual Growth Reduction (%) 21 Days After Application VERPE (VERPE bird's-eye speedwell (veronica persica), 70 g ai/ha): A (95-100) | GR50 VERPE (VERPE bird's-eye speedwell (veronica persica), growth reduction of 50%, probit analysis): 3 g ai/ha | GR80 VERPE (VERPE bird's-eye speedwell (veronica persica), growth reduction of 80%, probit analysis): 16 g ai/ha | GR90 VERPE (VERPE bird's-eye speedwell (veronica persica), growth reduction of 90%, probit analysis): 37 g ai/ha | pest or weed control at 17.5 g/ha (ALOMY black-grass (Alopecurus myosuroides), 17.5 g ai/ha, read-out: Visual Growth Reduction (%) 21 Days After Application ALOMY): 45 to 59% | pest or weed control at 35 g/ha [19]: 60 to 74% | pest or weed control at 70 g/ha [20]: 95 to 100% | pest or weed control at 17.5 g/ha (APESV bentgrass (Apera spica-venti), 17.5 g ai/ha, read-out: Visual Growth Reduction (%) 21 Days After Application APESV): 0 to 29% | pest or weed control at 35 g/ha [21]: 45 to 59% | pest or weed control at 70 g/ha [22]: 60 to 74% | pest or weed control at 17.5 g/ha (LOLSS ryegrass, 17.5 g ai/ha, read-out: Visual Growth Reduction (%) 21 Days After Application LOLSS): 0 to 29% | pest or weed control at 35 g/ha [23]: 0 to 29% | pest or weed control at 70 g/ha [24]: 0 to 29% | pest or weed control at 17.5 g/ha (SETVI green foxtail (Setaria viridis), 17.5 g ai/ha, read-out: Visual Growth Reduction (%) 21 Days After Application SETVI): 60 to 74% | pest or weed control at 35 g/ha [25]: 75 to 84% | pest or weed control at 70 g/ha [26]: 95 to 100%

Nc1cc(-c2cc3c(cc2F)OC(F)(F)O3)nc(C(=O)O)c1Cl [Compound 42]
GR50 ALOMY [1]: 11 g ai/ha | GR80 ALOMY [2]: 25 g ai/ha | GR90 ALOMY [3]: 40 g ai/ha | GR50 APESV [4]: 22 g ai/ha | GR80 APESV [5]: 81 g ai/ha | GR90 APESV [6]: >140 g ai/ha | GR20 HORVS [7]: 0.50 g ai/ha | pest or weed control at 35 g/ha [8]: 75 to 84% | pest or weed control at 70 g/ha [9]: 85 to 94% | pest or weed control at 140 g/ha (Hordeum vulgare, HORVS barley, spring (crop), 140 g ai/ha, read-out: Visual Growth Reduction (%) 21 Days After Application HORVS): 85 to 94% | Visual Growth Reduction (%) 21 Days After Application KCHSC (KCHSC kochia (Kochia scoparia), 35 g ai/ha): E (45-59) | Visual Growth Reduction (%) 21 Days After Application KCHSC (KCHSC kochia (Kochia scoparia), 70 g ai/ha): E (45-59) | Visual Growth Reduction (%) 21 Days After Application KCHSC (KCHSC kochia (Kochia scoparia), 140 g ai/ha): D (60-74) | GR50 KCHSC (KCHSC kochia (Kochia scoparia), growth reduction of 50%, probit analysis): 54 g ai/ha | GR80 KCHSC (KCHSC kochia (Kochia scoparia), growth reduction of 80%, probit analysis): >140 g ai/ha | GR90 KCHSC (KCHSC kochia (Kochia scoparia), growth reduction of 90%, probit analysis): >140 g ai/ha | GR50 LOLSS [10]: 44 g ai/ha | GR80 LOLSS [11]: >140 g ai/ha | GR90 LOLSS [12]: >140 g ai/ha | GR50 SETVI [13]: 10 g ai/ha | GR80 SETVI [14]: 46 g ai/ha | GR90 SETVI [15]: >140 g ai/ha | GR20 TRZAS [16]: 0.20 g ai/ha | pest or weed control at 35 g/ha [17]: 75 to 84% | pest or weed control at 70 g/ha [18]: 75 to 84% | pest or weed control at 140 g/ha (Triticum aestivum, TRZAS wheat, spring (crop), 140 g ai/ha, read-out: Visual Growth Reduction (%) 21 Days After Application TRZAS): 85 to 94% | pest or weed control at 35 g/ha [19]: 85 to 94% | pest or weed control at 70 g/ha [20]: 95 to 100% | pest or weed control at 140 g/ha (ALOMY black-grass (Alopecurus myosuroides), 140 g ai/ha, read-out: Visual Growth Reduction (%) 21 Days After Application ALOMY): 95 to 100% | pest or weed control at 35 g/ha [21]: 60 to 74% | pest or weed control at 70 g/ha [22]: 75 to 84% | pest or weed control at 140 g/ha (APESV bentgrass (Apera spica-venti), 140 g ai/ha, read-out: Visual Growth Reduction (%) 21 Days After Application APESV): 85 to 94% | pest or weed control at 35 g/ha [23]: 45 to 59% | pest or weed control at 70 g/ha [24]: 60 to 74% | pest or weed control at 140 g/ha (LOLSS ryegrass, 140 g ai/ha, read-out: Visual Growth Reduction (%) 21 Days After Application LOLSS): 60 to 74% | pest or weed control at 35 g/ha [25]: 75 to 84% | pest or weed control at 70 g/ha [26]: 85 to 94% | pest or weed control at 140 g/ha (SETVI green foxtail (Setaria viridis), 140 g ai/ha, read-out: Visual Growth Reduction (%) 21 Days After Application SETVI): 95 to 100%
